Assays:
[1] = system: some paramyxoviruses and pneumoviruses; details: cited from earlier work
[2] = system: NiV F and G glycoproteins; assay type: cell-based
[3] = system: Influenza virus; assay type: cell-based
[4] = system: HSV-1 KOS; assay type: cell-based
[5] = system: pNiV viral membrane; design: species or system NiV
[6] = system: pseudotyped NiV/VSV virus (pNiV); assay type: cell-based, Nipah virus
[7] = system: Vero cells; assay: Cytotoxicity / cell viability assay (CCK-8)
[8] = target: NiV F and NiV G on pseudotyped NiV virions (Nipah virus, UniProt Q9IH62+Q9IH63)
[9] = system: bovine rotavirus strain NCDV; assay: Rotavirus infection assay in MA104 cells; assay type: cell-based
[10] = system: pNiV viral membrane; design: species or system NiV; remark: listed apart in the source
[11] = target: NiV F protein (Nipah virus, UniProt Q9IH63)
NiV F protein, sequence (Q9IH63 110-546 limits assumed): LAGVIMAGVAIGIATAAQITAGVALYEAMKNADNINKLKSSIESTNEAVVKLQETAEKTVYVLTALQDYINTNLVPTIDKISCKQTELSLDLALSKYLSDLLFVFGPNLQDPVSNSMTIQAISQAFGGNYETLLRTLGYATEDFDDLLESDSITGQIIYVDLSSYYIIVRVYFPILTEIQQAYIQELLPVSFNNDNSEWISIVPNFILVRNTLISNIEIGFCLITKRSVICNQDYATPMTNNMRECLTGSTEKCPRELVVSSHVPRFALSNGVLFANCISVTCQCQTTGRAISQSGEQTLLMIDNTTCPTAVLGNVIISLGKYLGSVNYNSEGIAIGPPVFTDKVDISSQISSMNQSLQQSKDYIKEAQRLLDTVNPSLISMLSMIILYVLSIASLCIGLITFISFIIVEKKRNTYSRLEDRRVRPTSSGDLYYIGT
NiV F protein, sequence (Q9IH63 27-109 limits assumed): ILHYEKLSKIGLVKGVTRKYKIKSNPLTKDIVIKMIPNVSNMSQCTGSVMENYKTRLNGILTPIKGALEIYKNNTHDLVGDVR

[12] = target: NiV G glycoprotein (Nipah virus, UniProt Q9IH62)
NiV G glycoprotein, sequence (Q9IH62 whole entry, looked up): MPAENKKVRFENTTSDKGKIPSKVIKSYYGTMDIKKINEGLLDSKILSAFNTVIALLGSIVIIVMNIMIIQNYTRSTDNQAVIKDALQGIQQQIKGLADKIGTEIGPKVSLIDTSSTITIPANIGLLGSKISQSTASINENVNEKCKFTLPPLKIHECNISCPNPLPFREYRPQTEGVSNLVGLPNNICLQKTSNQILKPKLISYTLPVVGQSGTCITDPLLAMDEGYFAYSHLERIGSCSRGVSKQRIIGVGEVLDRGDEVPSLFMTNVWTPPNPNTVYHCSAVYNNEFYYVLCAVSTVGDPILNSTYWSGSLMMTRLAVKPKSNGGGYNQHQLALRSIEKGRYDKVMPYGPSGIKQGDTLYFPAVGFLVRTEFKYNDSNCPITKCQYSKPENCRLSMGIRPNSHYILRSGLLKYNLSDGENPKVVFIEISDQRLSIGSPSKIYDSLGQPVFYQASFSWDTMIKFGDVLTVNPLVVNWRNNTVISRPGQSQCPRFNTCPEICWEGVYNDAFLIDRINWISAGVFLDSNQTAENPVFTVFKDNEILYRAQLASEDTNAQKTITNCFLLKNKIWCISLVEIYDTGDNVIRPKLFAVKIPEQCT

[13] = system: Human respiratory syncytial virus (RSV A2 strain); assay: Plaque assay for RSV infections; assay type: cell-based
[14] = system: vesicular stomatitis virus (VSV); assay type: cell-based
[15] = system: 293T cells transfected with NiV F and G; assay type: cell-based

C1COCCN1.COc1ccc(P(=S)(S)N2CCOCC2)cc1 (centres unmarked) [GYY4137]
EC50 [1]: 10000 µM

COC(=O)C(CSSC(=O)c1ccccc1)NC(=O)c1ccccc1 (centres unmarked) [XM-01]
protein G or F expression on cell surfaces [2]: neither XM-01 at 10 μM nor LJ001 at 1 μM significantly affect
Influenza virus infection [3]: inhibited
HSV-1 plaque formation [4]: inhibit HSV-1 plaque formation in a concentration-dependent fashion
RNA spill from virions (TEM) [5]: RNA spilled more frequently
viral membrane appearance (TEM) [5]: compromised viral membrane
capability of treated virions to infect Vero cells [6]: highly inhibited
inhibition when added after infection (time of addition) [6]: completely incapable of inhibiting the virus
inhibitory activity in the absence of light [6]: did not need light to inhibit pNiV infections
inhibitory properties [6]: high inhibitory properties
potency as antiviral inhibitor compared with NaHS or GYY4137 [6]: much more potent
viral infection of pretreated cells [6]: did not significantly reduce viral infection
inhibition of infectivity ([6]; 10 μM): high inhibition of infectivity
EC50 ([6]; read-out: EC50 (inhibitory concentration, pNiV system)): ~1 µM
cytotoxicity ([7]; 1, 3, and 10 μM): low cytotoxicity
difference between inhibitory and cytotoxic concentrations ([7]; EC50 pNiV vs CC50): ~3 log
CC50 ([7]; Vero cells, 1 μM-1 mM, calculated using Graphpad Prism): ~1000 µM
glycoprotein conformations (antibody binding to NiV F or NiV G) [8]: no significant changes in antibody binding
non-enveloped rotavirus infection [9]: no significant inhibition
ratio of excimer to monomer (membrane fluidity) [10]: considerably lower ratio of excimers to monomers
NiV-F protein triggering [11]: not decreased
ephrinB2 receptor binding ability of NiV G [12]: did not interfere
RSV infection [13]: inhibited
VSV infection [14]: inhibited
cell to cell fusion [15]: inhibit cell to cell fusion

COC(=O)C(CSC(C)=O)NC(=O)c1ccccc1 (centres unmarked) [XM-11]
inhibitory properties [6]: high inhibitory properties

COC(=O)C(CSC(=O)c1ccccc1)NC(=O)c1ccccc1 (centres unmarked) [XM-10]
inhibitory properties [6]: high inhibitory properties

COC(=O)C(CSSC(C)=O)NC(=O)c1ccccc1 (centres unmarked) [XM-03]
inhibitory properties [6]: high inhibitory properties

CC(=O)NC(CSSC(=O)c1ccccc1)C(=O)NCc1ccccc1 (centres unmarked) [XM-02]
inhibitory properties [6]: high inhibitory properties

Source: patent US20180271823A1, “SULFUR-BASED BROAD SPECTRUM ANTIVIRALS” (priority 2017, published 2018)
